Measured values from US9682111B2, “Method for preventing or treating neurodegenerative diseases” (priority 2012, dated 2017).

Experiments:
[1] = tested on: Caenorhaditiselegans transgene strain CL4176 (expressing Aβ protein); test: Paralysis of AD model elegans caused by Aβ (transgene strain CL4176); assay type: in vivo, Caenorhabditis elegans; details: 15° C. then 26° C., paralysis counted every three hours, blank control 49.503 ± 0.445
Experimental: Caenorhaditiselegans (Caenorhaditiselegans) transgene strain CL4176 (expressing Aβ protein under temperature inducing) were synchronized and cultured under 15° C. to L1 phase, and then added into coated OP50 microbial medium dishes containing the extracted drugs with different concentrations, at around 25/dish. Three dishes were used in one group. The dishes were cultured under 15° C. for 12 hours and then cultured under 26° C. 36 hours after the change of culturing temperature, the paralyses of the elegans were observed. Count every three hours until all the elegans was paralyzed.

[2] = tested on: pPD95.86::α-SYN transgenic C. elegans; test: Lifespan of α-SYN transgenic C. elegans (anti-elegan aging experiment); assay type: in vivo, Caenorhabditis elegans; details: α-syn transgenic elegans on NGM plates with OP50, 20° C.; α-syn model 11.8 ± 3.66, N2 16 ± 5.68
From the text: pPD95.86::α-SYN transgenic C. elegans were establish by Sun et al. and preserved in the Department of Neurosurgery, the First Affiliated Hospital of Sun Yat-sen University, China. The method for establishing the α-SYN transgenic C. elegans was described in detail by Sun et al. (Toxic effect of Parkinson's disease gene α-Synuclein on Caenorhabditis elegants. New Medicine, 2013, 44 (4): 273-277.)
In brief, a wild-human α-SYN cDNA were amplified by PCR and inserted into the plasmid pPD95.86. Transgenic plasmids were isolated and injected into the gonad of synchronized N2 C. elegants at a concentration of 100 ng/μl. The transgenic F2 (second generation) worms was selected and then mutated under UV radiation. The UV treated F2 worms were backcrossed to wild type worms to generate stable α-SYN transgenic lines. The α-SYN transgenic lines express α-SYN and therefore have shorter life span and impaired motor functions.
A solution containing E. coli OP50, and biotae extracts and diterpenoid compounds of different concentrations are coated onto NGM plates. N2 elegans are synchronized to L4 phase under 20° C. Three plates are employed in one experimental group, and each plate includes about 25 elegans. The number of live elegans is recorded every day, and the elegans are transferred into a new NGM plate when the food is used up or there is mold contamination. The experiment pends till all the elegans are dead.

PC12 cells = test: MPP+ induced injury of PC12 cells (PD model cells), MTT assay; assay type: cell-based, rat; parameters: Relative Cell Activity %: concentration or dose not given beside the values; details: PC12 cells with MPP+ and test substance, 24 hours; for average OD value: MTT assay, model group 1.061 ± 0.035, normal control 2.198 ± 0.046; for Relative Cell Activity %: MTT, normal control 100, model group 48.3
Experimental: PC12 cells (rat adrenal pheochromocytoma cell strain), which show many similar characters with dopaminergic neurons, was cultured in DMEM medium (which contains 5% horse serum, 5% fetal bovine serum, 100 U/mL penicillin, 100 µg/mL streptomycin), in an incubator under 37° C., saturated humidity, and 5% CO2. The medium was replaced every 2-3 days, and the cells were subcultured when the cells cover 70-80% area of the plate. Cells in log phase and under fine growth conditions were chosen, and inoculated in 96 well plate at 1-5×10^5 and 100 μl per well. After culturing under 37° C. for 24 hours and the cells adhere to the walls of the wells, MPP^+ medium was added to the model group, a medium containing MPP^+(1-methyl-4-phenylpyridinium) and semen biotae extracts/diterpenoid compounds were added to experimental group, and a medium with no drug was added to the blank control group. Then the media were continued to culture in the incubator for 24 hours. MTT assay was used to evaluate cell activity.

Molecule | Average Living Time [1] [h] | Living time [2] [days] | average OD value (PC12 cells) | Relative Cell Activity % (PC12 cells) [%]
C=C1CC[C@@H]2[C@](C)(CCC[C@]2(C)C(=O)O)[C@H]1CC/C(C)=C/CO [Isocupressic acid] | 53.879 ± 0.414 | 14.85 ± 2.66 |  | 
C=C1CC[C@@H]2[C@](C)(CCC[C@]2(C)C(=O)O)[C@H]1CCC1=CCOC1=O [Pinusolidic acid] |  | 13.8 ± 3.37 | 1.224 ± 0.057 | 55.7
C=C1CCC2C(C)(C(=O)OC)CCCC2(C)C1C/C=C/C (stereo not shown) [14,15-Bisnor-8(17),12E-labdadien-19-oic acid methyl ester] |  | 14.8 ± 3.24 | 1.536 ± 0.035 | 69.9
C=CC1(C)C=C2C=CC3C(C)(C(=O)O)CCCC3(C)C2CC1 (stereo not shown) [6,7-Dehydrosandarapimaric Acid] | 52.435 ± 0.484 | 14.7 ± 2.7 | 1.435 ± 0.044 | 65.3
C=C1CCC2C(C)(C(=O)O)CCCC2(C)C1CCC1=CC(OC)OC1=O (stereo not shown) [15-Methoxypinusolidic acid] | 55.012 ± 0.399 | 13.55 ± 4.05 |  | 
C=C1CCC2C(C)(C(=O)O)CCCC2(C)C1CCCC(=O)O (stereo not shown) [14,15-bisnor-8(17)-labdene-16,19-dioic acid] | 51.892 ± 0.322 | 14.35 ± 3.38 | 1.292 ± 0.072 | 58.8
CC(C)c1c(O)ccc2c1CCC1C2(C)C(=O)CC(O)C1(C)C (stereo not drawn) [1-oxo-3β-hydroxytotarol] | 53.478 ± 0.357 | 14.6 ± 3.63 | 1.448 ± 0.057 | 65.9
C=C1CCC2C(C)(C(=O)O)CCCC2(C)C1CCC1=CC(O)OC1=O (stereo not shown) [15-Hydroxypinusolidic acid] | 51.575 ± 0.257 | 14.1 ± 4.68 | 1.585 ± 0.057 | 72.1
C=C[C@@]1(C)CC[C@H]2C(=CC[C@@H]3[C@]2(C)CCC[C@@]3(C)C(=O)O)C1 [Isopimaric acid] | 52.785 ± 0.432 | 14.9 ± 1.55 |  | 
Isopinusolide | 53.988 ± 0.320 | 13.9 ± 3.65 |  | 
C=CC1(C)C=C2C(O)CC3C(C)(C(=O)O)CCCC3(C)C2CC1 (stereo not drawn) [7α-Hydroxysandaracopimaric acid] | 53.067 ± 0.455 | 14.3 ± 3.01 |  | 
C=C1CC[C@@H]2[C@](C)(CCC[C@]2(C)C(=O)O)[C@H]1C/C=C(\C)C=O [Naphthalenecarboxylic acid, decahydro-1,4a-dimethyl-6-methylene-5-[(2E)-3-methyl-4-oxo-2-butenyl]-, (1S,4aR,5S,8aR)-] | 52.136 ± 0.415 | 14.4 ± 3.42 | 1.236 ± 0.085 | 56.2
C=CC(C)(O)C(O)CC1C(=C)CCC2C(C)(C(=O)O)CCCC12C (stereo not shown) [12,13-Dihydroxylabda-8(17),14-dien-19-oic acid] | 51.008 ± 0.434 | 14.15 ± 3.1 |  | 
C=C1CCC2C(C)(C(=O)O)CCCC2(C)C1C/C=C(\C)[C@@H](O)CO (stereo partly drawn) [14(R),15-Dihydroxy-8(17),12(E)-labdadien-19-oic acid] |  | 14.5 ± 3.76 | 1.346 ± 0.059 | 61.2
C=C1CC[C@@H]2[C@](C)(CCC[C@]2(C)C(=O)O)[C@H]1/C=C/C(C)=O [1-Naphthalenecarboxylic acid, decahydro-1,4a-dimethyl-6-methylene-5-[(1E)-3-oxo-1-butenyl]-, (1S,4aS,5S,8aR)-] |  | 14.75 ± 2.22 |  | 
C=C[C@@](C)(O)CCC1C(=C)C(O)CC2C(C)(C(=O)O)CCCC12C (stereo partly drawn) [7β,13S-dihydroxylabda-8(17),14-dien-19-oic acid] |  | 13.7 ± 2.85 | 1.359 ± 0.045 | 61.8
C=C1CCC2C(C)(C(=O)O)CCCC2(C)C1CC/C(=C\CO)CO (stereo not shown) [15,16-Dihydroxy-8(17),13(E)-labdadien-19-oic acid] | 51.217 ± 0.397 | 14.35 ± 2.62 |  | 
C=C1CC[C@@H]2[C@](C)(CCC[C@]2(C)C(=O)OC)[C@H]1CCC1=CCOC1=O [Pinusolide] | 54.003 ± 0.287 | 15.6 ± 2.74 |  | 
C=C1CCC2C(C)(C(=O)O)CCCC2(C)C1CC1(O)OCC(O)C1(C)O (stereo not shown) [12,13,14-trihydroxylabda-12,15-epoxy-8(17)-en-19-oic acid] |  | 14 ± 3.67 | 1.404 ± 0.057 | 63.9
C=C[C@@](C)(O)CC[C@H]1C(=C)CC[C@@H]2[C@]1(C)CCC[C@]2(C)C(=O)O [13-Epicupressic acid] | 54.015 ± 0.432 | 13.7 ± 3.34 |  | 
C=C[C@]1(C)C=C2CC[C@@H]3[C@](C)(CCC[C@@]3(C)C(=O)O)[C@H]2CC1 [Sandaracopimaric acid] | 53.616 ± 0.443 | 15.85 ± 3.1 |  | 
C=C1CC[C@@H]2[C@](C)(CCC[C@]2(C)C(=O)O)[C@H]1CC[C@H](C)CCO [Imbricatolic acid] | 55.857 ± 0.428 | 14.25 ± 2.67 |  | 
Platyclolactonic Acid Methyl Ester | 51.393 ± 0.487 | 14.3 ± 3.08 |  | 
C=C1CC[C@@H]2[C@](C)(CCC[C@]2(C)C(=O)O)[C@H]1CCC(C)=O [1-Naphthalenecarboxylic acid, decahydro-1,4a-dimethyl-6-methylene-5-(3-oxobutyl)-, (1S,4aR,5S,8aR)-] | 50.991 ± 0.568 | 14.35 ± 3.9 | 1.391 ± 0.038 | 63.3
C=C1CCC2C(C)(C(=O)O)CCCC2(C)C1CC1OCC=C1CC (stereo not shown) [16-Methyl-12,15-epoxy-8(17),13-labdadien-19-oic acid] | 54.336 ± 0.377 | 13.95 ± 3.9 |  | 
Platyclolactonic Acid |  | 13.95 ± 2.26 |  | 
C=CC1(C)C=C2CCC3C(C)(CO)C(O)CCC3(C)C2CC1 (stereo not drawn) [Sandaracopimaradiene-3β,18-diol] |  | 14.05 ± 3.49 | 1.652 ± 0.015 | 75.1
